# What was measured:
# [1] = biological target: human ERβ-LBD (Homo sapiens, UniProt Q92731); assay: Isothermal titration calorimetry; format: binding
# [2] = tested on: ERα; conditions: cited from earlier work
# [3] = tested on: ERα; conditions: ref ICCVAM [2003]; cited from earlier work
# [4] = biological target: T1, human ERα-LBD (Homo sapiens, UniProt P03372); assay: biochemical; format: binding
# T1 sequence (P03372 304-554): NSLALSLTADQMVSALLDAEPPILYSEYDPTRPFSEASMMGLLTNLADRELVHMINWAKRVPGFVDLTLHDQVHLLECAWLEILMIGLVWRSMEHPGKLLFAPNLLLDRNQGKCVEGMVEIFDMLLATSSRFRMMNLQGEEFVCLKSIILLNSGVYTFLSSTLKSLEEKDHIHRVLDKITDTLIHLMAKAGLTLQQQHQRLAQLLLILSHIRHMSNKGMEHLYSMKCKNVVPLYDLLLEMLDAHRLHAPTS
# [5] = ITC, 25 °C, one binding site model
# human ERβ-LBD, sequence (Q92731 264-498): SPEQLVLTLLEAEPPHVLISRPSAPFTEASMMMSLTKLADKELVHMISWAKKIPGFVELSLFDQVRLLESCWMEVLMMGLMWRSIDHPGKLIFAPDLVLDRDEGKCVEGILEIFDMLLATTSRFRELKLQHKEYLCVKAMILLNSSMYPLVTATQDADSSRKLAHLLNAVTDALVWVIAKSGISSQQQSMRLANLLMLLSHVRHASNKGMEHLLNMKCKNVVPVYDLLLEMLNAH
structure (smiles),measurement,setting,value
CC(C)(C)CC(C)(C)c1ccc(O)cc1 [4-tert-Octylphenol],Kd,[1],15.9 µM
C[C@]12CC[C@H]3[C@@H](CCC4=CC(=O)CC[C@@]43C)[C@@H]1CC[C@@H]2O [testosterone],transcriptional response in TG 455 (in words),[2]; ref ICCVAM [2003],fails to induce downstream transcriptional responses
same,ER binding in TG 493 (in words),[3],may bind to the ER
CC(C)C(=O)Nc1ccc([N+](=O)[O-])c(C(F)(F)F)c1 [Flutamide],Kd (ER α),[4]; [5],no binding
same,Kd (ER β),[1]; [5],no binding
same,activity in previous TG 455 (in words),"[2]; previous TG 455, ref Zacharia [2017]",no activity
CCC(C)(c1ccc(O)cc1)c1ccc(O)cc1 [Bisphenol B],Kd,[4],112 µM
same,Kd,[1],51.3 µM
